From patent US7271171B2, “Adenosine A3 receptor modulators” (King Pharmaceuticals Research and Development, Inc., priority 1998, dated 2007)
Counter-ions that a name gives are not always drawn.

How the values were obtained:
rA2A adenosine receptor = biological target: T1, rA2A adenosine receptor (Rattus norvegicus, UniProt P30543); experiment: Rat A2A adenosine receptor binding assay, [3H]SCH58261 displacement, rat striatum membranes; settings: rat striatum membranes, [3H]SCH58261; read-out: rA2A (Ki)
T1 construct: membranes of rat striatum (80-100 μmg of protein/assay); from tissue; host or cells: striatum of male Wistar rats
T1 sequence (P30543 whole entry): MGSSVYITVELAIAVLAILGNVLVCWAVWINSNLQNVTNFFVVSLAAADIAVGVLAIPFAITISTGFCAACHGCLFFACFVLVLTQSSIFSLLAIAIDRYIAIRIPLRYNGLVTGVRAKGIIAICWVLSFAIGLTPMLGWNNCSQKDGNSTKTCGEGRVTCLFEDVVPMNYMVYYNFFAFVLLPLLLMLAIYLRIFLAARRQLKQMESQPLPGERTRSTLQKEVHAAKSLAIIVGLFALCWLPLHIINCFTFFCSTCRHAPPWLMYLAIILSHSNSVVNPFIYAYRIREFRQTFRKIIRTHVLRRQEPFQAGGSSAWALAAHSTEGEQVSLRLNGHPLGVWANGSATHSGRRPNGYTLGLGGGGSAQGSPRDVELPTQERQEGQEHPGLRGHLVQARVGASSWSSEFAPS
Experimental: (§3) Male Wistar rats (200-250 g) were decapitated and the whole brain and striatum dissected on ice. […] The homogenate was centrifuged at 48,000 for 10 min, and the pellet was resuspended in the same buffer containing 2 IU/mL adenosine deaminase. After 30 min incubation at 37° C., the membranes were centrifuged and pellets were stored at −80° C. Prior to freezing, an aliquot of homogenate was removed for protein assay with bovine albumin as reference standard. Binding assays were performed on rat brain and striatum membranes respectively, in the presence of 10 mM MgCl2 at 25° C.
(§4) Separation of bound from free radio ligand was performed by rapid filtration through Whatman GF/B filters which were washed three times with ice-cold buffer. Filter bound radioactivity was measured by scintillation spectrometry after addition of 5 mL of Aquassure. […] Ki values were calculated from the Cheng-Prusoff equation. All binding data were analyzed using the nonlinear regression curve-fitting computer program LIGAND.

rA1 adenosine receptor = biological target: T2, rA1 adenosine receptor (Rattus norvegicus, UniProt P25099); experiment: Rat A1 adenosine receptor binding assay, [3H]CHA displacement, rat brain membranes
T2 construct: membranes of rat brain (150-200 μg- of protein/assay); from tissue; host or cells: whole brain of male Wistar rats
T2 sequence (P25099 1-326): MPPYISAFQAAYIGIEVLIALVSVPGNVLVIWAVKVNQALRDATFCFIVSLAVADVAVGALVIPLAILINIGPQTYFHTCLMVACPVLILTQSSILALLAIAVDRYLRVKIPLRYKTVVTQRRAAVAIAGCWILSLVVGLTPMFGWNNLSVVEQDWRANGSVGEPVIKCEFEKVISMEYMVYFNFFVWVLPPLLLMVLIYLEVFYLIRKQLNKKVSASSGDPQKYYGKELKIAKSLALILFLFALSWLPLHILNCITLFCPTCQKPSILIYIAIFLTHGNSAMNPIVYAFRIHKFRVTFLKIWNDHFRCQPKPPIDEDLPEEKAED
Experimental: as §3, §4

[1] = biological target: T3, human recombinant A3 adenosine receptor (Homo sapiens, UniProt P0DMS8); experiment: Human cloned A3 adenosine receptor binding assay, [125I]AB-MECA, HEK-293 membranes; set-up: USA; host or cells: HEK-293; settings: for Ki: HEK-293 membranes, [125I]AB-MECA, read-out: hA3 (Ki); for rA1/hA3 / rA2A/hA3: selectivity ratio of Ki values
T3 sequence (P0DMS8 1-318): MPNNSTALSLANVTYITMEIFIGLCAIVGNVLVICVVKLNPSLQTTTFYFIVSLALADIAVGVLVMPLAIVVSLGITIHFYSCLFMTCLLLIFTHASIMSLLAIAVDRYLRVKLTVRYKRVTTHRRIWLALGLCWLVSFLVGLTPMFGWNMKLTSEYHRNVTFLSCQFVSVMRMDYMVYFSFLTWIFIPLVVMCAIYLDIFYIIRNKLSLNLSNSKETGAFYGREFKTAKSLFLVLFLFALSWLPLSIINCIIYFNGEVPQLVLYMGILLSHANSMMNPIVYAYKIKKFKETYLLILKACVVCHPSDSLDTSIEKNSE

[2] = biological target: T4, human recombinant A1 adenosine receptor (Homo sapiens, UniProt P30542); experiment: Human cloned A1 receptor binding, [3H]-DPCPX, CHO cells; settings: read-out: hA1 (Ki)
T4 construct: expressed in transfected cells; host or cells: CHO
T4 sequence (P30542 1-326): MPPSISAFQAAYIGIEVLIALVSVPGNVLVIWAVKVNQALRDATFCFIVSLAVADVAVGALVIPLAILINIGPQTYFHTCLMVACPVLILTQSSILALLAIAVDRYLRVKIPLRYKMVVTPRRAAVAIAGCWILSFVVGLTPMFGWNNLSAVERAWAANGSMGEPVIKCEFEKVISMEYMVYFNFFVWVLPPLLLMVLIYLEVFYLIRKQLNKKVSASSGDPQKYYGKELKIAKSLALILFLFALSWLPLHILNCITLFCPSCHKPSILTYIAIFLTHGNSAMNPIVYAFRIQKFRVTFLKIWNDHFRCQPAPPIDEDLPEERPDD
Experimental: (§1) The expression of the human A1, A2A, A2B and A3 receptors in CHO cells has been previously described (Klotz et al., 1998). The cells are grown adherently and maintained in Dulbecco's modified Eagle's medium with nutrient mixture F12 without nucleosides at 37 ° C. in 5% CO2/95% air. Cells are split two or three times weekly and then the culture medium is removed for membrane preparations. The cells are washed with phosphate-buffered saline and scraped off flasks in ice cold hypotonic buffer (5 mM Tris HCl, 2 mM EDTA, pH 7.4). The cell suspension is homogenized with Polytron and the homogenate is centrifuged for 30 min. at 48,000 g. The membrane pellet is re-suspended in 50 mM Tris HCl buffer at pH 7.4 for A1 adenosine receptors, in 50 mM Tris HCl, 10 mM MgCl2 at pH 7.4 for A2A adenosine receptors, in 50 mM Tris HCl, 10 mM MgCl2, 1 mM EDTA at pH 7.4 for A3 adenosine receptors and are utilized for binding and adenylate cyclase assays.
Binding of [^3H]-DPCPX to CHO cells transfected with the human recombinant A1 adenosine receptor is performed according to the method previously described by Klotz and coworkers (Klotz, K. N.; Cristalli, G.; Grifantini, M.; Vittori, S.; Lohse, M. J., “Photoaffinity labeling of A1 adenosine receptors,” J. Biol. Chem., 260, 14659-14664, 1985).
(§2) Displacement experiments are performed for 120 min. at 25° C. in 0.20 mL of buffer containing 1 nM [^3H]-DPCPX, 20 μL of diluted membranes (50 μg of protein/assay) and at least 6-8 different concentrations of examined compounds. Non-specific binding is determined in the presence of 10 μM of CHA and this is always 10% of the total binding. Binding of [^3H]-SCH58261 to CHO cells transfected with the human recombinant A2A adenosine receptors (50 μg of protein/assay) was performed according to Varani et al. (Varani, K; Cacciari, B.; Baraldi, P. G.; Dionisotti, S.; Ongini, E.; Borea, P. A., “Binding affinity of adenosine receptor agonists and antagonists at human cloned […] adenosine receptors,” Life Sci., 63, 81-87, 1998). In competition studies, at least 6-8 different concentrations of compounds are used and non-specific binding is determined in the presence of 50 μM NECA for an incubation time of 60 min. at 25° C.

[3] = biological target: T5, human recombinant A2B adenosine receptors (Homo sapiens, UniProt P29275); experiment: Human cloned A2B receptor binding, [3H]-DPCPX, HEK-293 cells; settings: read-out: hA2B (Ki)
T5 construct: host or cells: HEK-293
T5 sequence (P29275 1-332): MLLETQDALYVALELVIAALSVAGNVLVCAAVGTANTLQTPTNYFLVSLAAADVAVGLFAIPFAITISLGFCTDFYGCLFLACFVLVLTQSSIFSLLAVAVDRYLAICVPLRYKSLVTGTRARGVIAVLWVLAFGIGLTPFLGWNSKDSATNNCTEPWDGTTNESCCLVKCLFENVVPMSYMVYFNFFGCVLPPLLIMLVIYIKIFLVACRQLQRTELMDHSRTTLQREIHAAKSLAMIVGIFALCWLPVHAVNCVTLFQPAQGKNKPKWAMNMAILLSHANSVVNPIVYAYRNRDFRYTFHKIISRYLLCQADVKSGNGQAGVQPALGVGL
Experimental: Binding of [^3H]-DPCPX to HEK-293 cells (Receptor Biology, Inc., Beltsville, Md.) transfected with the human recombinant A2B adenosine receptors is performed essentially to the method described by Varani and coworkers (Mol. Pharmacol.). In particular, assays are carried out for 60 min. at 25° C. in 0.1 mL of 50 mM Tris HCl Buffer, 10 mM MgCl2, 1 mM EDTA, 0.1 mM benzamidine pH 7.4, 2 IU/ml adenosine deaminase containing 40 nM [^3H]-DPCPX, diluted membranes (20 µg of protein/assay) and at least 6-8 different concentration of tested compounds. Non-specific binding is determined in the presence of 100 μM of NECA and is always 30% of the total binding.

[4] = biological target: T6, human recombinant A2A adenosine receptors (Homo sapiens, UniProt P29274); experiment: Human cloned A2A receptor binding, [3H]-SCH58261, CHO cells; settings: read-out: hA2A (Ki)
T6 construct: expressed in transfected cells; host or cells: CHO
T6 sequence (P29274 whole entry): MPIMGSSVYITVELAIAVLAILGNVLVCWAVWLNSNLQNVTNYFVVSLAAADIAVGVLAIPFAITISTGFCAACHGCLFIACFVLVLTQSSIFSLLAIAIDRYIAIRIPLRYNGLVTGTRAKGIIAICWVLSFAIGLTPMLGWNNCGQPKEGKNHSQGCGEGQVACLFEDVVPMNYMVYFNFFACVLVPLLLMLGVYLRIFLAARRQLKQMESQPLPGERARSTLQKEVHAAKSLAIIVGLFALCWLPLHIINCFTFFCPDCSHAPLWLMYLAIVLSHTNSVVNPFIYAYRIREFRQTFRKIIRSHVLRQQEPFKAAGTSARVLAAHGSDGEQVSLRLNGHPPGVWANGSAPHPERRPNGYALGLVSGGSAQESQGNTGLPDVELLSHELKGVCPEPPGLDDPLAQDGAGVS
Experimental: as §1, §2

[5] = biological target: T3, human recombinant A3 adenosine receptor; experiment: Human cloned A3 receptor binding, [3H] MRE3008-F20, CHO cells; set-up: expressed in transfected cells; host or cells: CHO; settings: for Ki: CHO cells, [3H] MRE3008-F20, read-out: hA3 (Ki); for hA1/hA3 / hA2A/hA3 / hA2B/hA3: selectivity ratio of Ki values
Experimental: The cells are grown adherently and maintained in Dulbecco's modified Eagle's medium with nutrient mixture F12 without nucleosides at 37 ° […] Cells are split two or three times weekly and then the culture medium is removed for membrane preparations. The cells are washed with phosphate-buffered saline and scraped off flasks in ice cold hypotonic buffer (5 mM Tris HCl, 2 mM EDTA, pH 7.4). The cell suspension is homogenized with Polytron and the homogenate is centrifuged for 30 min. at 48,000 g. The membrane pellet is re-suspended in 50 mM Tris HCl buffer at pH 7.4 for A1 adenosine receptors, in 50 mM Tris HCl, 10 mM MgCl2 at pH 7.4 for A2A adenosine receptors, in 50 mM Tris HCl, 10 mM MgCl2, 1 mM EDTA at pH 7.4 for A3 adenosine receptors and are utilized for binding and adenylate cyclase assays.

Ki [3] | SMILES | Ki (rA2A adenosine receptor) | Ki (rA1 adenosine receptor) | Ki [1] | rA1/hA3 [1] | rA2A/hA3 [1] | Ki [2] | Ki [4] | Ki [5] | hA1/hA3 [5] | hA2A/hA3 [5] | hA2B/hA3 [5]
– | O=C(Nc1cccc(Cl)c1)Nc1nc2nn(CCc3ccccc3)cc2c2nc(-c3ccco3)nn12 [Compound 54, 5-[[(3-Chlorophenyl)amino]carbonyl]amino-8-(2-(phenyl)ethyl)-2-(2-furyl)-pyrazolo[4,3-e]1,2,4-triazolo[1,5-c]pyrimidine] | 1700 nM | 1050 nM | 13.3 nM | 79 | 128 | – | – | – | – | – | –
– | COc1ccc(NC(=O)Nc2nc3nn(CCc4ccccc4)cc3c3nc(-c4ccco4)nn23)cc1 [Compound 55, 5-[[(4-Methoxyphenyl)amino]carbonyl]amino-8-(2-(phenyl)ethyl)-2-(2-furyl)-pyrazolo[4,3-e]1,2,4-triazolo[1,5-c]pyrimidine] | 1400 nM | 1280 nM | 1.47 nM | 872 | 951 | – | – | – | – | – | –
– | O=C(Nc1cccc(Cl)c1)Nc1nc2nn(CCCc3ccccc3)cc2c2nc(-c3ccco3)nn12 [Compound 56, 5-[[(3-Chlorophenyl)amino]carbonyl]amino-8-(3-(phenyl)propyl)-2-(2-furyl)-pyrazolo[4,3-e]1,2,4-triazolo[1,5-c]pyrimidine] | 3200 nM | > 10000 nM | 42.6 nM | >234 | 75 | – | – | – | – | – | –
– | COc1ccc(NC(=O)Nc2nc3nn(CCCc4ccccc4)cc3c3nc(-c4ccco4)nn23)cc1 [Compound 57, 5-[[(4-Methoxyphenyl)amino]carbonyl]amino-8-(3(phenyl)propyl)-2-(2-furyl)-pyrazolo[4,3-e]1,2,4-triazolo[1,5-c]pyrimidine] | > 10000 nM | 1510 nM | 19.8 nM | 76.4 | >504 | – | – | – | – | – | –
– | O=C(Cc1ccccc1)Nc1nc2nn(CCCc3ccccc3)cc2c2nc(-c3ccco3)nn12 [Compound 59, 5-[(Benzyl)carbonyl]amino-8-(3-(phenyl)propyl)-2-(2-furyl)-pyrazolo[4,3-e]1,2,4-triazolo[1,5-c]pyrimidine] | 400 nM | 345 nM | 121 nM | 2.8 | 3.3 | – | – | – | – | – | –
350 nM | CCN(CC)c1ccc(NC(=O)Nc2nc3nn(C)cc3c3nc(-c4ccco4)nn23)cc1 [Compound 101, N-[4-(diethylamino)phenyl]-N′-[2-(2-furyl)-8-methyl-8H -pyrazolo[4,3-e][1,2,4]triazolo[1,5-c]pyrimidin-5-yl]urea] | – | – | – | – | – | 580 nM | 523 nM | – | – | – | –
276 nM | CCN(CC)c1ccc(NC(=O)Nc2nc3nn(C)cc3c3nc(-c4ccco4)nn23)cc1 [Compound 102, N-[8-methyl-2-(2-furyl)-8H-pyrazolo[4,3-e][1,2,4]triazolo[1,5-c]pyrimidin-5-yl]-N′-[4-(diethylamino)phenyl]urea hydrochloride] | – | – | – | – | – | 680 nM | 593 nM | – | – | – | –
609 nM | CN(C)c1ccc(NC(=O)Nc2nc3nn(C)cc3c3nc(-c4ccco4)nn23)cc1 [Compound 103, N-[8-methyl-2-(2-furyl)-8H-pyrazolo[4,3-e][1,2,4]triazolo[1,5-c]pyrimidin-5-yl]-N′-[4-(dimethylamino)phenyl]urea hydrochloride] | – | – | – | – | – | > 10000 nM | > 10000 nM | – | – | – | –
– | CCCn1cc2c(nc(NC(=O)Nc3ccc(OC)cc3)n3nc(-c4ccco4)nc23)n1 [Compound 108, 5-[[(4-methoxyphenyl)amino]carbonyl]amino-8-propyl-2-(2-furyl)-pyrazolo[4, 3]-e-1 ,2,4-triazolo[1,5-c]pyrimidine] | – | – | – | – | – | 1200 nM | 141 nM | – | – | – | –
– | CCn1cc2c(nc(NC(=O)Nc3ccc(OC)cc3)n3nc(-c4ccco4)nc23)n1 [Compound 109] | – | – | – | – | – | 1030 nM | 1040 nM | 0.28 nM | 3660 | 3730 | –

SMILES | Ki [3] | Ki (rA2A adenosine receptor) | Ki (rA1 adenosine receptor) | Ki [1] | rA1/hA3 [1] | rA2A/hA3 [1] | Ki [2] | Ki [4] | Ki [5] | hA1/hA3 [5] | hA2A/hA3 [5] | hA2B/hA3 [5]
Cn1cc2c(nc(NC(=O)Nc3ccc(S(=O)(=O)N4CCOCC4)cc3)n3nc(-c4ccco4)nc23)n1 [Compound 104] | > 10000 nM | – | – | – | – | – | 726 nM | 1400 nM | 2.47 nM | 294 | 566 | 4050
CN1CCN(S(=O)(=O)c2ccc(NC(=O)Nc3nc4nn(C)cc4c4nc(-c5ccco5)nn34)cc2)CC1 [Compound 105, N-[2-(2-furyl)-8-methyl-8H-pyrazolo[4,3-e][1,2,4]triazolo[1,5-c]pyrimidin-5-yl]-N′{-4-[(4-methylpiperazin-1-yl)sulfonyl]-phenyl}urea] | > 1000 nM | – | – | – | – | – | > 1000 nM | > 1000 nM | 29 nM | 34.5 | 34.5 | 34.5
